Consider 5 molecules from article PMC9331716, “Nucleoside Transport and Nucleobase Uptake Null Mutants in Leishmania mexicana for the Routine Expression and Characterization of Purine and Pyrimidine Transporters” (International Journal of Molecular Sciences, 2022).

One data set relates to Lmex5FURes cells. The data set can be described thus: Radiolabel transport assay in Lmex5FURes cells. Type of data set: cell-based, Leishmania mexicana. The protocol: (§1) Transport assays were performed exactly as described previously. Briefly, 10^7 cells in 100 μL of assay buffer (AB) were mixed with an equal volume of radiolabel at 2× concentration for a preset time. The incubation was terminated by the addition of 700 μL of “Stop solution”, being ice-cold 1 mM solution of unlabelled permeant, followed by immediate centrifugation through an oil layer in a microfuge at 13,000 rpm. This causes the cell pellet to reside under the oil layer and isolated from residual radiolabel in the assay buffer. The tubes were flash-frozen in liquid nitrogen and the bottom tip, containing the cell pellet, cut off and collected in a scintillation tube. Cells were solubilized by gentle shaking after addition of a 2% SDS solution, before the addition of scintillation fluid (Scintilogic U, Lablogic, Sheffield, UK); the tubes were left to stand in the dark overnight before counting in a 300SL Hidex Scintillation Counter (Lablogic). Linear and nonlinear regression analyses were carried out using GraphPad Prism versions 8.0 and higher. […] However, all parameters, including Km, Vmax, Ki, given are the average of at least three separate, independent determinations; errors given are standard errors, unless otherwise specified.

For data set [1], the target named is Aspergillus nidulans uracil transporter FurD (Aspergillus nidulans, UniProt A6N844). The data set can be described thus: Transport assay, FurD expressed in Lmex5FURes. Format: cell-based. The method, then: as §1
For the next data set, the target named is FurD. Further details: method as in PMID 17520477. As to conditions: FurD in A. nidulans, cited from earlier work.
The test system of data set [2] is L. mexicana cas9 cells. The data set can be described thus: Radiolabel transport assay in cas9 cells. Format: cell-based, Leishmania mexicana. As to conditions: for rate of uptake: cas9 cells. The method, then: as §1
A further data set deals with L. mexicana NT1-KO cells. The data set is described as follows: Radiolabel transport assay in NT1-KO cells. Format: cell-based, Leishmania mexicana. The method, then: as §1
Data set [3] deals with L. mexicana SUPKO (ΔNT1.1/1.2/2) cells. The data set can be described thus: Radiolabel transport assay in SUPKO cells. The following applies: for rate of uptake: SUPKO cells. Format: cell-based, Leishmania mexicana. The method, then:
as §1

The test system of data set [4] is L. mexicana NT3-KO promastigotes. The data set can be described thus: Radiolabel transport assay in NT3-KO cells. Type of data set: cell-based, Leishmania mexicana. The protocol:
as §1

In a further data set the test system is LmexNT1.1. The data set can be described thus: Transport assay, LmexNT1.1 expressed in SUPKO. Type of data set: cell-based, Leishmania mexicana. As to conditions: SUPKO expressing LmexNT1.1, 50 nM radiolabel. The method, then:
as §1

The test system of a further data set is LmexNT1.2. The data set is described as follows: Transport assay, LmexNT1.2 expressed in SUPKO. Format: cell-based, Leishmania mexicana. As to conditions: SUPKO expressing LmexNT1.2, 50 nM radiolabel. The method, then:
as §1

For data set [5], the target named is T1, TvagENT3 (Trichomonas vaginalis, UniProt A2E5Q3). The data set is described as follows: cell-based. The protocol: as §1
In data set [6] the target is T2, TcrNB2 (Trypanosoma cruzi, UniProt Q4DHG0).
T2 sequence (Q4DHG0 1-440): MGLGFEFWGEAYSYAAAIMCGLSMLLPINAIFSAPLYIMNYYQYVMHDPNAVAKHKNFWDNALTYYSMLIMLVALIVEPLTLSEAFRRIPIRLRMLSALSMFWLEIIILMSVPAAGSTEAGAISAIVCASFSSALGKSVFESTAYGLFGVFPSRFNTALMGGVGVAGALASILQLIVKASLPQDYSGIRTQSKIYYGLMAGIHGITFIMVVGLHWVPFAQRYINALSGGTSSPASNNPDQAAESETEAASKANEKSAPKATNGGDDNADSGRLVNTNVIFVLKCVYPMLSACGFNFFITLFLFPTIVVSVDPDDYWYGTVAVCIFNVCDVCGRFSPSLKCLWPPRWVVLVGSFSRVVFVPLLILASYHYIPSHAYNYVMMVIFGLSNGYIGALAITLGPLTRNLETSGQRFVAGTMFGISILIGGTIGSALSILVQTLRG
The data set can be described thus: Transport assay, TcrNB2 expressed in LmexNT3-KO. Type of data set: cell-based. The following applies: 1 mM inhibitor, TcrNB2 in NT3-KO; read-out: inhibition of adenine uptake. The method, then:
as §1

Data set [7] concerns the target T2, TcrNB2. The data set can be described thus: Transport assay, TcrNB2 expressed in NT1-KO. Format: cell-based. As to conditions: 50 nM [^3H]-adenosine, 100 nM [^3H]-hypoxanthine, 100 nM [^3H]-uracil; data not shown. The method, then:
as §1

Data set [8] deals with T1, TvagENT3. As to conditions: TvagENT3 expressed in T. brucei; cited from earlier work.
The subject of data set [9] is L. mexicana cas9 promastigotes. The data set is described as follows: Resazurin (Alamar blue) drug sensitivity assay, cas9 control line. Type of data set: cell-based. As to conditions: Leishmania mexicana, n = 3. The protocol: (§2) The assay is based on the reduction of the dye resazurin (Alamar blue) by live but not dead cells and was performed with various strains of Leishmania mexicana promastigotes, exactly as described. Briefly, doubling dilutions starting at 100 µM were set up over 2 rows of a 96-well plate and 2 × 10^5 cells were added to each well, followed by incubation at 25 °C. After 72 h, 20 µL of 125 µg/mL resazurin solution was added and the plates incubated for a further 24 h. Fluorescence was determined in a FLUOstar OPTIMA plate reader (BMG Labtech, Ortenberg, Germany), reading the fluorescence intensity in arbitrary units (A.U.) at 544 nm wavelength for excitation and 620 nm wavelength for emission. The EC50 values and fluorescence data were determined and plotted to a sigmoid curve with variable slope, using the GraphPad Prism 8 software package. All EC50 values were determined on at least three independent occasions and are presented as average ± SEM.

For data set [10], the system named is L. mexicana NT2-KO promastigotes. The data set is described as follows: Resazurin (Alamar blue) drug sensitivity assay, NT2-KO line. Format: cell-based. As to conditions: Leishmania mexicana, NT2-KO strain, n = 3. The protocol:
as §2

Data set [11] concerns L. mexicana cas9 cells. The data set is described as follows: Growth curve of cas9 cells with selection agents. As to conditions: 5 μM tubercidin, 5 μg/mL blasticidin, 20 µg/mL puromycin, 1 µM formycin B. Format: cell-based, Leishmania mexicana. The protocol:
The growth rates of the L. mexicana promastigotes were determined in the standard HOMEM medium supplemented with 10% FBS, in 12-well plates, in triplicate. After every 24 h, cells were counted in a sample of the culture, using either a Neubauer hemocytometer chamber (Hawksley, Birmingham, UK) or by a coulter particle counter and size analyzer (Beckman, Brea, CA, USA) to count the cells in triplicate. An average of the triplicate readings was taken and plotted using GraphPad Prism 8 software to obtain the growth curves.

The target in the next data set is L. major U1 transporter. Further details: method as in PMID 15796010. As to conditions: unit printed only with the uridine value; cited from earlier work.
Substrate in data set [12]: O=c1cc[nH]c(=O)[nH]1
The data set can be described thus: Transport assay, FurD expressed in Lmex5FURes. Format: cell-based, Aspergillus nidulans. The following applies: other: FurD in Lmex5FURes, 100 nM [^3H]-uracil over 10 s. The method, then: as §1

[13] abbreviates: 50 nM radiolabel, listed as [^3H]-adenosine.

“And” between values parts separate entries of the source, which are not always exact repeats. Identical values can stand only once.

T1 sequence (A2E5Q3 entry or part of it): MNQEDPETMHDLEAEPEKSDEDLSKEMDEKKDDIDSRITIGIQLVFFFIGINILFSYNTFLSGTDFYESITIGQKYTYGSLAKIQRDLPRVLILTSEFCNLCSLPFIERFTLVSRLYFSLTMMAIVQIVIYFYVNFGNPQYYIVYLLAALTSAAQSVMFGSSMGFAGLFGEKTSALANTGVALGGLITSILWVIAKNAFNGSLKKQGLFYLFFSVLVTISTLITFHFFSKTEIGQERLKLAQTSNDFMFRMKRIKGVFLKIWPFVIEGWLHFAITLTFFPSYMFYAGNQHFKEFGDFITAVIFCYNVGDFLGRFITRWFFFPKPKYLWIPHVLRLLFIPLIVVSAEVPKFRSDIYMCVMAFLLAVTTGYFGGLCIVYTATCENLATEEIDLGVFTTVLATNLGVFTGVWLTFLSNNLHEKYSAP

With `O=c1[nH]cc(F)c(=O)[nH]1` [5FU, 5-fluorouracil], the “uptake in Lmex5FURes control” value in the data set with Lmex5FURes cells (100 nM [^3H]-5FU, p = 0.27) is on record as “not significantly different from zero”. The inhibition constant (Ki) in data set [1] (FurD in Lmex5FURes, inhibition of [^3H]-uracil uptake) is 700 ± 250 nM; at FurD (unit printed only with the uracil Km) it was 460 nM.
With `Nc1ncnc2c1ncn2[C@@H]1O[C@H](CO)[C@@H](O)[C@H]1O` [adenosine], the “inhibition of [^3H]-thymidine uptake” value with L. mexicana cas9 cells [2] (0.1 µM [^3H]-thymidine, adenosine concentration and cell line not explicitly printed) is on record as “fully inhibited”. For the same molecule, the rate of uptake is 0.082 ± 0.004 pmol(10^7 cells)^−1s^−1 and 0.081 ± 0.006 pmol(10^7 cells)^−1s^−1 with L. mexicana cas9 cells [2] (setting [13]); 0.082 ± 0.004 pmol(10^7 cells)^−1s^−1 and 0.086 ± 0.009 pmol(10^7 cells)^−1s^−1 in the data set on L. mexicana cas9 cells [2] (100 nM radiolabel, listed as [^3H]-adenosine); 0.00048 ± 0.00007 pmol(10^7 cells)^−1s^−1 with L. mexicana NT1-KO cells (NT1-KO cells, 50 nM radiolabel); 0.00063 pmol(10^7 cells)^−1s^−1 in data set [3] (50 nM radiolabel); 0.0006 ± 0.00007 pmol(10^7 cells)^−1s^−1 in data set [3] (setting [13]); 0.00046 ± 0.00002 pmol(10^7 cells)^−1s^−1 in data set [3] (100 nM radiolabel). The rate of uptake in data set [4] (NT3-KO cells, 100 nM radiolabel) was 0.55 ± 0.05 pmol(10^7 cells)^−1s^−1; in the data set on LmexNT1.1 it was 0.27 ± 0.006 pmol(10^7 cells)^−1s^−1; in the data set on LmexNT1.2, 0.36 ± 0.03 pmol(10^7 cells)^−1s^−1; at TvagENT3 [5] (SUPKO expressing TvagENT3, 50 nM radiolabel) it was 0.0080 ± 0.0004 pmol(10^7 cells)^−1s^−1. In addition, the “rate of uptake lower in NT1-KO than in cas9” value in the data set with L. mexicana NT1-KO cells (50 nM radiolabel) is on record as 99.4%. Also, the “uptake reduced in SUPKO compared to cas9” value in data set [3] (50 nM radiolabel) turned out to be 99%. Further, the “upregulation of uptake rate in NT3-KO relative to cas9” value in data set [4] (adenosine and inosine at 100 nM, separate experiments listed singly, listed as [^3H]-adenosine) is 4.0 fold and 6.4 fold. In addition, on TvagENT3 [5] (50 nM radiolabel), the “uptake lower in SUPKO than in SUPKO expressing TvagENT3” value turned out to be 94.6%. Besides, the inhibition at 1000 µM at TcrNB2 [6] stood at 15.5 ± 11.7%. For the same molecule, the “effect of TcrNB2 expression on uptake in NT1-KO cells” value at TcrNB2 [7] was “did not increase”. Also, the Ki at TvagENT3 [8] was 870 ± 150 nM.
Take `O=c1[nH]cnc2c([C@@H]3O[C@H](CO)[C@@H](O)[C@H]3O)n[nH]c12` [formycin B]: the EC50 in [9] is 18 ± 2 nM; in [10], 63500 ± 1900 nM. The “sensitivity of cas9 cells in growth curve” value with L. mexicana cas9 cells [11] is given as “confirmed”.
Turning to `O=c1cc[nH]c(=O)[nH]1` [uracil], the rate of uptake was 0.00031 ± 0.00002 pmol(10^7 cells)^−1s^−1 in the data set with L. mexicana cas9 cells [2] (100 nM radiolabel); 0.00032 ± 0.00003 pmol(10^7 cells)^−1s^−1 in data set [3] (100 nM radiolabel); 0.00057 ± 0.0001 pmol(10^7 cells)^−1s^−1 with Lmex5FURes cells (Lmex5FURes cells, 100 nM radiolabel); 0.29 ± 0.02 pmol(10^7 cells)^−1s^−1 in [1] (Lmex5FURes expressing FurD clone 2, 100 nM radiolabel). Besides, in the data set on L. mexicana NT1-KO cells (100 nM [^3H]-uracil), the “uptake in NT1-KO compared with cas9” value is “identical”. In data set [3] (100 nM [^3H]-uracil, n = 3, p = 0.81), the “uptake in SUPKO compared with cas9” value was “identical”. Further, the “effect of TcrNB2 expression on uptake in NT1-KO cells” value on TcrNB2 [7] is recorded as “did not increase”. Moreover, the Ki on L. major U1 transporter is 320 ± 70 nM. Moreover, the Km in the data set with FurD is 0.45 µM.

B1: Aspergillus nidulans uracil transporter FurD (Aspergillus nidulans) (protein)
chain: MRFGRFHLRVEQSRSAFASGNARWTNLDLDPVPRAGRVWGPLSFISYWISDAFNAATWQFASSIIAVGLSWRESLGIVALSFFIISFVIAANGAVGSIYHIPFPVIARASWGFWGSYIAIISRVILAIFWFAIQNVNGANAVKAMISAIWPSFLSMKNTIPQDQGIETNTMIAYMIFWIVQMPFLCIHPNKVRWLFATKSVLVPAAWIAILIWAFVAEGKGALFEQRATVSGSQYSWVWLASMTSVLGNYATLSVNQSDFSRYSRVSAKWQLLYIPLLPVIFTFISFIGIAASSAGWTRYNTPSIPWDPIELISHWDSRAARFFGAFSFALASLGVNISANSISAANDLMALFPTYVDLRRGQIICGVISWALVPWKILESASNFLNFMSAYAIFLGPIAAIMLWDFWLIKNRKYDTVALYQPDTPIYRFNAWLVNWRAVVAFLVGVIPSLPGLSNSVNSRIQVGVGIHPYQFGWLLGFVGTSLVYIALSYGFPVREALIERAVLSDEVYEGREVEGEGVEEGREELGESKREGVGKEKGFAVY
As to B1, the Km in [12] was determined as 0.89 ± 0.20 µM.
